These results are taken from US20050214738A1, “Conditional allele system” (priority 2003, published 2005).

For series [1], the target named is T1, FRB*Pax6 (UniProt P26883+P42345, K2095P/T2098L/W2101F).
T1 construct: The minimal FRB domain comprises amino acids 2025-2114 of human mTor; from tissue; host or cells: e13.5 cortical neural cultures (A14) and cultured whole embryos (A15) from Pax6^FRB* knock-in mice; fusion expressed from the targeted endogenous locus
Put plainly: Stabilization of FRB*Pax6 in cortical neural cultures (Western blot). Format: cell-based, mouse. The settings on record: replacement of MaRap after 36 hours; 500 nM after 200 nM MaRap. An excerpt: e13.5 embryos were harvested from a Pax6^FRB*/+ intercross and cortical hemispheres isolated from individuals identified by eye and craniofacial morphology and later confirmed by genotype specific PCR. Pia were removed and neocortex dissected from […] in Hank's balanced salt solution (HBSS). Tissue was minced roughly and placed in centrifuge tubes containing HBSS+20% foetal calf serum. Tissue pieces were allowed to settle and the media was replaced first with HBSS+serum then HBSS alone. The tissue was incubated with 0.1% trypsin+2 mM EDTA 10 minutes at 37° C. then the reaction stopped with HBSS+serum. Cells were triturated to a suspension and plated on 24 well plates coated with matrigel in DMEM (high glucose) supplemented with FCS (5%), N2 (GIBCO) and antibiotics.
Extracts were prepared in RIPA buffer, protein quantified by Bradford Assay (Biorad) and 10 μg of total protein resolved by SDS-PAGE, transferred to PVDF (Millipore) filters and Pax6 or HSP90 identified with specific antibodies (1:1000, Covance and 1:2500 Transduction Laboratories, respectively) incubated 1 hour in TBS+10% nonfat milk. Secondary conjugated to horse radish peroxidase were purchased from Jackson immunochemicals and blots were developed by chemiluminescence (Amersham).
A general note: A western blot detects proteins with antibodies after separation by electrophoresis.

In series [2] the target is T1, FRB*Pax6. The series is described as follows: Whole embryo culture, inducible stabilization of FRB*Pax6. Details: species or system mouse. Here is the method: Uterine horns were removed from sacrificed mothers to a petri dish containing Hank's Balanced Salt Solution (HBSS), fat was removed and the uterus cut up to isolate embryos. Individual deciduum were carefully removed from the uterus by carefully pulling apart the muscular layers in a fresh petri dish containing HBSS (sometimes supplemented with 2 mg/mL glucose) under a dissecting microscope. Embryos were removed by cutting along the lateral axis of the deciduum with fine forceps taking care not to puncture the embryonic membranes and teasing off the decidual layers overlying the embryo. Embryos were then separated from the remaining decidua at the ectoplacental cone or primitive placenta (depending on the age of the embryo).
Reichert's membrane was grasped without the underlying visceral yolk sac, carefully torn away from the embryo and trimmed back to the placenta without ripping the yolk sac. […] The bottle rotated slowly in a roller bottle chamber at 37° C. Drugs were added directly to the culture media at the commencement of the culture.
Embryos were fixed overnight in 4% paraformaldehyde/PBS then dehydrated through a staged ethanol series. Endogenous peroxidases were inactivated with 5% H2O2 for 4 hours in ethanol and the embryos were rehydrated. […] Embryos were washed in block 6 hours with 1 hour changes and incubated overnight at 4° C. with […] anti-mouse secondary. Embryos were washed with PBS+0.1% Triton X-100 4 times for 1 hour and developed with the DAB peroxidase kit from Vector laboratories.
Embryos were protected with a staged series to 30% sucrose in PBS after fixation in 4% PFA (60 minutes to overnight at 4° C.). Protected embryos were embedded in OCT (VWR) frozen and sectioned on a Leica cryostat to 10 μm. Thin sections were stained according to standard protocols (obtained upon request). Secondary antibodies were purchased from Molecular Probes (Eugene, Oreg.) and primary antibodies to neurofilament, Lim3, Nkx2.2, Pax6, En1, Isl1 were obtained from Dev. Studies. Additional antibodies were from Covance, Zymed or a generous gift of Tadashi Nomura and Noriko Osumi (Sendai, Japan). Immunofluorescence was visualized by confocal microscopy.

For another series, the target named is GSK-3βFRB* (UniProt P26883+P42345, K2095P/T2098L/W2101F). Put plainly: Inducible stabilization of GSK-3βFRB* in knock-in MEFs (Western blot). The format is cell-based, mouse. Also noted: The minimal FRB domain comprises amino acids 2025-2114 of human mTor; endogenous in cells; host or cells: MEFs from GSK-3β^FRB* knock-in mice (fusion expressed from the targeted endogenous locus). The settings on record: heterozygous MEFs; for GSK-3βFRB* stability when stabilization is reversed with FK506 in presence of protease inhibitor: inhibitor added 30 minutes before FK506, 9 h. The procedure: MEFs cell lines were prepared from E14.5-E16.5 embryos of indicated genotypes by eviscerating the embryos in HBSS, treating the remaining tissue with 0.2% collagenase and trypsin, and plating the cells in DMEM containing 10% FCS, antibiotics, and 0.1 mM β-mercaptoethanol. Once established, the MEFs were cultured using standard techniques and treated with various small molecules as indicated.
Chain of GSK-3βFRB* (P42345 2025-2114 K2095P/T2098L/W2101F): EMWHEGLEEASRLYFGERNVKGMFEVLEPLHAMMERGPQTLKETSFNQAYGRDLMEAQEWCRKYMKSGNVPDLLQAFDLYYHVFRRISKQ
Chain of GSK-3βFRB* (P26883 2-108): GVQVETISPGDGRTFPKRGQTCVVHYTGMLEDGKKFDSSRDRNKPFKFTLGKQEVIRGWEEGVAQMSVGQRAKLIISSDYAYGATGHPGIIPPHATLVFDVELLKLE
Western Blot analysis was carried out using cell lysates prepared in RIPA buffer (10 mM Tris pH 7.2, 150 mM NaCl, 0.1% SDS, 1% Triton X-100, 1% deoxycholate, 5 mM EDTA, protease inhibitor cocktail (Invitrogen Life Technologies)) and then separated using standard SDS/PAGE before being transferred to PVDF (Millipore) using standard Western blotting procedures. The anti-GSK-3β antibody, used at 1:2500, the anti-HSP-90 antibody, 1:2500, and the anti-FKBP12 antibody, 1:2500, were purchased from BD Transduction Labs. The anti-β-catenin antibody, 1:2000, and anti-HSP-70 antibody, 1:1000 were purchased from Santa Cruz Biotechnology. […] In all cases, Western blots were incubated overnight with the appropriate primary antibodies in TBST (10 mM Tris 8.0, 150 mM NaCl, 0.1% Tween-20) containing 10% dry milk, and then washed 3 times with TBST. The blots were subsequently incubated for 30 minutes with HRP-conjugated secondary antibodies from Jackson Immunoresearch, washed 3 more times with TBST, and then developed using standard ECL reagents (Amersham Biosciences) and Kodak XAR film.

In another series the test system is mutant FRBs. The series is described as follows: SeAP transcriptional switch assay, panel of FRB mutants at 2095, 2098, 2101. The format is cell-based, human. Here is the method:
All FRB mutants were prepared by the Quikchange mutagenesis method (Stratagene) using protocols provided by the manufacturer. Briefly, PCR reactions containing the parent plasmid pBJ5-FRB-VP16-HA or pBJ5-FRB*-VP16-HA and overlapping oligonucleotides containing the relevant base changes were performed with Pfu polymerase (Stratagene, San Diego, Calif.). PCR reactions were digested with the methylation sensitive restriction endonuclease Dpn1 to eliminate the parent plasmid and the reaction was transformed in XL10-Gold Ultracompetent E. coli (Stratagene).
Electroporation details are available upon request. Cells were immediately aliquoted to 2 or 3×96 well plates with flat bottoms. […] Data was analysed with Softmax Pro (Molecular Devices), Microsoft Excel and Prism 3 (GraphPad Software).

The target in the next series is T2, FRB (Homo sapiens, UniProt P42345+P62942).
T2 construct: The minimal FRB domain comprises amino acids 2025-2114 of human mTor; expressed in transfected cells; host or cells: COS-1 cells, electroporated with pBJ5-FRBVP, pBJ5-GF3E and pG5IL2SX
T2 sequence (P42345 2025-2114): as the sequence (P42345 2025-2114 K2095P/T2098L/W2101F) above, with P71K, L74T, F77W counted along it
T2 sequence (P62942 whole entry, the tested form may be a part): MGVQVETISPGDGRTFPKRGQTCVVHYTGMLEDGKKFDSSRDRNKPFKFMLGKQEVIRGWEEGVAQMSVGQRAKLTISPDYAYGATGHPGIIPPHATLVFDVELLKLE
The series is described as follows: SeAP reporter assay, dimerization of FRB-VP16 to FKBP3-GAL4DBD in COS-1 cells. The format is cell-based. The settings on record: wild-type FRB(KTW)-VP16; ±95% confidence intervals. An excerpt: (§1) Transcription activation by recruitment of chimeric transcriptional activation and DNA binding domains is described. COS-1 cells were electroporated with […] each of the following expression plasmids (Ho, S. N., Biggar, S. R., Spencer, D. M., Schreiber, S. L., and Crabtree, G. R. “Dimeric ligands define a role for transcriptional activation domains in reinitiation.” (1996) Nature 382, 822-826): pG5IL2SX (drives transcription of bacterial secreted alkaline phosphatase (SeAP) through GAL4 DNA binding […] elements), pBJ5-GF3E (which expresses the GAL4 DNA binding domain fused to three copies of human FKBP12), and pBJ5-FRBVP. (which expresses a FRB fusion with the Herpes Simplex Virus VP16 Activation domain) A FRB*-VP16 fusion protein which consists of modified FRB protein fused to the VP16 activation domain was also used selectively. Transfected cells were distributed equally to 96 well plates and were incubated at 37° C. for 24 to 36 hours before media was supplemented with drug in a dilution curve in which each point is represented in quadruplicate. Cells were incubated at 37° C. for an additional 24 hours followed by a 2-hour treatment at 65° C. to inactivate endogenous phosphatases. Each well was supplemented with 100μL of 1 mM methylumbelliferylphosphate dissolved in 2 M diethanolamine buffered to pH 10.0 with carbonate and incubated at 37° C. for 16 hours. Fluorescence was measured with a Fluoroscan (ICN) plate reader at 355 nm transmission and 455 nm emission using Deltasoft software.
(§2) Drug efficacy was determined in a three-plasmid transcriptional switch reporter assay. ˜106 COS1 cells were coelectroporated with 2 μg of the DNA binding construct pBJ5-Gal4-FKBP(3), 2 μg pBJ5-VP16 (or the relevant mutant FRB) and 2 μg of the Gal4-SeAP reporter. Electroporation details are available upon request. […] SeAP activity was measured by fluorescence with a Spectamax M2 fluorometer (Molecular Devices, Sunnyvale, Calif.) with transmission set at 355 nm and emmission set at 460 nm. Data was analysed with Softmax Pro (Molecular Devices), Microsoft Excel and Prism 3 (GraphPad Software).
A general note: A reporter such as luciferase makes a cellular process visible.

A further series has as its target T3, FRB* (Homo sapiens, UniProt P42345+P62942, K2095P/T2098L/W2101F).
T3 construct: The minimal FRB domain comprises amino acids 2025-2114 of human mTor; expressed in transfected cells; host or cells: COS-1 cells
The series is described as follows: SeAP reporter assay, dimerization of FRB*-VP16 to FKBP3-GAL4DBD in COS-1 cells. Format: cell-based. The following applies: FRB*(PLF)-VP16; ±95% confidence intervals.
Excerpt: as §1, §2

The next series deals with embryos. The series is described as follows: Overt effects on mother and embryos after IP injection of pregnant mice. Format: in vivo, mouse. The settings on record: 10 mg/kg/day, similarly injected. The procedure: GSK-3β^+/FRB* mice were intercrossed and the date of vaginal plug observation was set as E0.5. At E9.5, the stage of embryonic development was confirmed by ultrasonography (Chang, C. P. et al. “Sonographic Staging of the Developmental Status of Mouse Embryos in Utero.” (2003) Published in Genesis 36, 7-11) and mice were weighed. Drug administration commenced at E10.0. […] 100 μL was immediately injected intraperitoneally (IP) to pregnant females with injections repeated twice more at 12 hour intervals to E11.5 when mice were sacrificed, and embryos and organs were dissected and frozen in […]. Tissues anterior to the embryonic forelimbs of individual embryos were used for preparation of protein extracts with the remainder used to determine the concentration of drug and for genotyping.

Where a SMILES comes first, the peptide text is derived from it. The star is where a group is joined. Cbz = O=C(OCc1ccccc1)* A value given as a limit tells only on which side of the number the result lay.

T1 sequence (P42345 2025-2114 K2095P/T2098L/W2101F): as the sequence (P42345 2025-2114 K2095P/T2098L/W2101F) above
T1 sequence (P26883 2-108): as the sequence (P26883 2-108) above
T3 sequence (P42345 2025-2114 K2095P/T2098L/W2101F): as the sequence (P42345 2025-2114 K2095P/T2098L/W2101F) above
T3 sequence (P62942 whole entry, the tested form may be a part): as the sequence (P62942 whole entry, the tested form may be a part) above

As to `CO[C@H]1C[C@@H](C)C/C(C)=C/[C@@H](CCOC(=O)NCc2ccccc2)C(=O)C[C@H](O)[C@@H](C)[C@@H](/C(C)=C/[C@@H]2CC[C@@H](O)[C@H](OC)C2)OC(=O)[C@@H]2CCCCN2C(=O)C(=O)[C@]2(O)O[C@H]1[C@@H](OC)C[C@H]2C` [FK506M, reference compound], the “time for stabilized FRB*Pax6 levels to drop to the basal level” value at FRB*Pax6 [1] is ≤ 6 h. The “differentiation of Lim3-positive somatic motor neurons after transient stabilization” value at FRB*Pax6 [2] (24 hours MaRap then replacement with FK506M) is reported as “fail to differentiate”. Further, the “FRB*Pax6 immunoreactivity after transient stabilization” value at FRB*Pax6 [2] (24 hours MaRap then replacement with FK506M (5 μM) 24 hours, e9.5 embryos) is reported as “loss of most of the FRB*Pax6 immunoreactivity”. In addition, on GSK-3βFRB* (300 nM after 100 nM C20-MaRap 36 h), the “time for GSK-3βFRB* to return to steady state low levels” value is reported as “less than 9 hours”.

Consider `CO[C@H]1[C@@H](O)[C@H](C)C[C@H](C)/C=C/C=C/C=C(\C)[C@@H](c2c[nH]c3c(C)cccc23)C[C@@H]2CC[C@@H](C)[C@@](O)(O2)C(=O)C(=O)N2CCCC[C@H]2C(=O)O[C@H]([C@H](C)C[C@@H]2CC[C@@H](O)[C@H](OC)C2)C[C@H](O)[C@H](C)/C=C(\C)[C@H]1O` [C16-(S)iRap, C16-(S)7-methylindolerapamycin, reference compound], for which the “effectiveness against all mutants relative to C16-BSrap” value in the series with mutant FRBs (all mutants) is reported as “significantly less effective than C16-BSrap”.

What is called EC50 is the concentration at which the effect is half-maximal. C16-(R)-methallylrapamycin [C16-MaRap]: the half-maximal effective concentration (EC50) was 273 ± 13.5 nM at FRB and 15.9 ± 1.5 nM on FRB*.

As to `CC(C)C[C@@H](C=O)NC(=O)[C@H](CC(C)C)NC(=O)[C@H](CC(C)C)NC(=O)OCc1ccccc1` [MG132, reference compound] (Cbz-Leu-Leu-Leu-aldehyde), the “GSK-3βFRB* stability when stabilization is reversed with FK506 in presence of protease inhibitor” value (“GSK-3βFRB* stability … of protease inhibitor” below) at GSK-3βFRB* is reported as “remained stable”.

For `CCOC(=O)[C@H]1O[C@@H]1C(=O)N[C@@H](CC(C)C)C(=O)NCCC(C)C` [E-64D, reference compound], the “GSK-3βFRB* stability … of protease inhibitor” value on GSK-3βFRB* is reported as “did not protect”.

Take `CC(=O)N[C@@H](CSC(=O)[C@]1([C@@H](O)C(C)C)NC(=O)[C@H](C)[C@@H]1O)C(=O)O` [lactacystin, reference compound]: on GSK-3βFRB*, the “GSK-3βFRB* stability … of protease inhibitor” value is reported as “remained stable”.

Regarding `CO[C@H]1C[C@@H]2CC[C@@H](C)[C@@](O)(O2)C(=O)C(=O)N2CCCC[C@H]2C(=O)O[C@H]([C@H](C)C[C@@H]2CC[C@@H](O)[C@H](OC)C2)CC(=O)[C@H](C)/C=C(\C)[C@@H](O)[C@@H](OC)C(=O)[C@H](C)C[C@H](C)/C=C/C=C/C=C/1C` [rapamycin, reference compound], the effect on embryos result in the series on embryos was “produced “flat-top” embryos”.

Regarding “C16-(S)-3-Methylindole rapamycin [C16-iRap]”, the “binding to FRB mutants with Trp 2101 Phe substitution, Leu at 2098” value in the series on mutant FRBs (Phe at 2101, Leu at 2098) is “fully rescues drug binding”. In addition, the “binding to FRB mutants with Trp 2101 Phe substitution, Thr at 2098” value in the series on mutant FRBs (Phe at 2101, Thr at 2098) is on record as “does not bind”.
